Results taken from publication PMC5471252, “Anti-leukemia activity of a Hsp70 inhibitor and its hybrid molecules” (Scientific Reports, 2017).
Entries after “also recorded” stand apart in the source; their conditions may differ.

Assays:
[1] = test system: HL-60 cells; assay: MTT assay, cell viability of HL-60 cells; type: cell-based; settings: Homo sapiens, 48 h, mean ± s.d., n = 3, read-out: IC50 values of compounds for leukemia cells
[2] = test system: HL-60 and K562 cells; assay: Flow cytometry, fluorescein-annexin V and PI staining; type: cell-based, human; settings: 24 h; 10 µM Az, 10 µM GD or 4 µM Az-O3-GD
Procedure: (§1) To determine whether Az promotes leukemia cell death via apoptosis, acute leukemia HL-60 and chronic leukemia K562 cells were independently incubated with Az. The treated cells were then exposed to a mixed solution of fluorescein-annexin V and propidium iodide (PI) and flow cytometry analysis was conducted. […] The size of the treated cells was also assessed by using flow cytometry. […] We also investigated if the mitochondrial membrane potential in cells treated with Az is disrupted. To test this possibility, HL-60 and K562 cells were exposed to Az and subsequently stained with a membrane potential sensitive JC-1 probe. […] This serves as another evidence for apoptosis induced by Az.
HL-60 and K562 cells were incubated with each compound for 24 h in culture media. Cells were re-suspended with 500 μL binding buffer (10 mM HEPES, […] and 2.5 mM CaCl2, pH 7.5) and then incubated with the FITC-annexin V apoptosis detection kit with PI according to the protocol provided by the manufacturer. Flow cytometry was carried out by using a BD FACSVerse™ instrument (BD Biosciences) and the data were analyzed by using a FlowJo™ software (BD Biosciences).

[3] = test system: HL-60 and K562 cells; assay: Flow cytometry, JC-1 mitochondrial membrane potential; type: cell-based, human; settings: 24 h; 10 µM Az or 4 µM Az-O3-GD
Procedure: as §1
JC-1 staining: HL-60 and K562 cells were treated with each compound and then with 2.5 μg/mL JC-1 (Anaspec) in PBS for 15 min. Flow cytometry was conducted with a BD FACSVerse™ instrument (the red fluorescence signal: λex = 550 nm, λem = 600 nm; the green fluorescence signal: λex = 485 nm, λem = 535 nm) and the data were analyzed using a FlowJo™ software.

[4] = test system: AIF translocation in HL-60 and K562 cells; assay: AIF translocation to the nucleus (western blot, immunocytochemistry); type: cell-based, human; settings: 24 h; 2 μM for Az-O3-GD
Source text: Apoptosis-inducing factor (AIF) is known to be translocated from the cytosol to the nucleus during caspase-independent apoptosis (Supplementary Fig. S8b)[39]. In addition, it is also known that Hsp70 interacts with AIF directly and this interacting event results in blocking translocation of AIF to the nucleus and, in turn, prevents caspase-independent apoptosis. Because of these phenomena, we tested if Az has an influence on AIF-mediated caspase-independent apoptosis. To probe this issue, HL-60 and K562 cells were exposed to Az and the levels of AIF in the cytosolic and nuclear fractions were then determined. AIF translocation to the nucleus was not observed in Az-treated cells, based on western blot analysis (Fig. 4d). Additional evidence to support this conclusion was obtained from immunocytochemical analysis of leukemia cells treated with Az (Fig. 4d).
Western blot analysis. […] peroxidase-conjugated goat anti-rabbit IgG (1:2000, Santa Cruz Bio Technology) and goat anti-mouse IgG (1:2000, Santa Cruz Bio Technology) were used as the secondary antibodies. The blots were developed by using a West-ZOL® plus Western Blot Detection System (Intron Biotechnology Inc., South Korea). Western blot signals were analyzed by using a G:BOX Chemi Fluorescent & Chemiluminescent Imaging System.
Immunocytochemistry. […] Cell images were analyzed using the ZEN 2011 software.

[5] = test system: K562 cells; assay: MTT assay, cell viability of K562 cells; type: cell-based; settings: Homo sapiens, 48 h, mean ± s.d., n = 3, read-out: IC50 values of compounds for leukemia cells
[6] = test system: KG-1 cells; assay: MTT assay, cell viability of KG-1 cells; type: cell-based; settings: Homo sapiens, 48 h, mean ± s.d., n = 3, read-out: IC50 values of compounds for leukemia cells
[7] = test system: THP-1 cells; assay: MTT assay, cell viability of THP-1 cells; type: cell-based; settings: Homo sapiens, 48 h, mean ± s.d., n = 3, read-out: IC50 values of compounds for leukemia cells

COc1ccc(-c2nc(-c3cc(C(F)(F)F)cc(C(F)(F)F)c3)n(Cc3ccc(C(=O)NCCOCCOCCN)cc3)c2-c2ccc(OC)cc2)cc1 [Az, apoptozole]
IC50 [1]: 2.8 ± 0.87 µM | apoptosis, annexin V binding and PI uptake [2]: positive annexin V binding and positive PI uptake; also recorded: induces apoptosis | mitochondrial membrane potential, JC-1 red fluorescence [3]: reduction of the mitochondrial membrane potential | AIF translocation to the nucleus [4]: not observed | IC50 [5]: 3.6 ± 0.52 µM | IC50 [6]: 3.3 ± 0.71 µM | IC50 [7]: 3.7 ± 0.73 µM
